US20250332173A1, “COMPOUNDS AND METHODS FOR MODULATING NUCLEIC ACID SPLICING” (REMIX THERAPEUTICS INC., priority 2021, published 2025)
Like-named read-outs stand apart in the source and are kept apart here.

What was measured:
MYB mRNA = assay: RT-qPCR splicing assay, MYB canonical junction (CJ) and alternative junction (AJ) mRNA; type: cell-based, human; conditions: Homo sapiens; for AC50: increase in MYB alternative junction (AJ) mRNA, read-out: MYB AJ AC50
Summary of the method: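 Following a 24-hour incubation of A673 or K562 cells with serially diluted compound (3-fold steps, highest final 10 uM), the lysates undergo cDNA synthesis plus qPCR. Canonical and alternative junctions are each quantified against PPIA, GAPDH or GUSB.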

MYB = assay: HiBiT protein abundance assay, MYB HiBiT K562 cell line; type: cell-based, human; conditions: HiBiT K562 cell line, 24 hours, top dose 10 μM; read-out: Effect on protein abundance, MYB (IC50 category)
Summary of the method: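 Endogenous targets in K562 knock-in lines carried a HiBiT tag and were treated for 24 h at 37 °C with 10-point 3-fold dilutions (top 10 μM final, DMSO ≤0.25%). Abundance was read as lytic Nano-Glo HiBiT luminescence. IC50 came from a four-parameter logistic fit of normalized response.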

[1] = Table 5 panel, canonical junction qPCR, compound concentration having 50% response in CJ decrease, read-out: MYB IC50 (decrease in CJ mRNA levels)
[2] = decrease in MYB canonical junction (CJ) mRNA, RT-qPCR, read-out: MYB CJ IC50

| IC50 (MYB mRNA; [1]) [nM] | IC50 (MYB mRNA; [2]) [nM] | IC50 (MYB) [nM] | Structure (SMILES) | AC50 (MYB mRNA; RT-qPCR) [nM] |
| --- | --- | --- | --- | --- |
| < 100 | < 100 | < 100 | Cc1cn2nc(-c3ccc4c(=O)n(C5CCNCC5)cc(C)c4c3)cc(C)c2n1 [Compound 381, 6-{2,8-dimethylimidazo[1,2-b]pyridazin-6-yl}-4-methyl-2-(piperidin-4-yl)isoquinolin-1-one] | < 100 |
| < 100 | < 100 | < 100 | Cc1cn2cc(-c3cc(F)c4c(=O)n(C5CCNCC5)ccc4c3)cc(C#N)c2n1 [Compound 383, 6-[8-fluoro-1-oxo-2-(piperidin-4-yl)isoquinolin-6-yl]-2-methylimidazo[1,2-a]pyridine-8-carbonitrile] | < 100 |
| < 100 | < 100 | < 100 | Cc1cn2nc(-c3ccc4c(=O)n(C5CCNC6(CC6)C5)ccc4c3)cc(C)c2n1 (stereo not shown) [Compound 384] | < 100 |
| < 100 | < 100 | < 100 | Cc1cn2nc(-c3cc(C#N)c4c(=O)n(C5CCNC6(CC6)C5)ccc4c3)cc(C)c2n1 (stereo not shown) [Compound 387] | < 100 |
| < 100 | < 100 | < 100 | Cc1cn2nc(-c3cc(Cl)c4c(=O)n(C5CCNCC5)ccc4c3)cc(C)c2n1 [Compound 390, 8-chloro-6-{2,8-dimethylimidazo[1,2-b]pyridazin-6-yl}-2-(piperidin-4-yl)isoquinolin-1-one; trifluoroacetaldehyde] | < 100 |
| < 100 | < 100 | < 100 | Cc1cn2nc(-c3cc(O)c4c(=O)n(C5CCNCC5)ccc4c3)cc(C)c2n1 [Compound 391, 6-(2,8-dimethylimidazo[1,2-b]pyridazin-6-yl)-8-hydroxy-2-(piperidin-4-yl)isoquinolin-1(2H)-one] | < 100 |
| 100 to 1000 | 100 to 1000 | < 100 | CC(=O)c1cc(-c2cc(F)c3c(=O)n(C4CCNCC4)ccc3c2)cn2cc(C)nc12 [Compound 393, 6-{8-acetyl-2-methylimidazo[1,2-a]pyridin-6-yl}-8-fluoro-2-(piperidin-4-yl)isoquinolin-1-one 2,2,2-trifluoroacetate] | 100 to 1000 |
| < 100 | < 100 | < 100 | Cn1cc2cc(-c3cc(F)c4c(=O)n(C5CCNCC5)ccc4c3)cc(C#N)c2n1 [Compound 394, 5-(8-fluoro-1-oxo-2-(piperidin-4-yl)-1,2-dihydroisoquinolin-6-yl)-2-methyl-2H-indazole-7-carbonitrile] | < 100 |
| 100 to 1000 | 100 to 1000 | 100 to 1000 | COc1cc(-c2cc(C)c3nc(C)cn3n2)cc2ccn(C3CCNCC3)c(=O)c12 [Compound 399, 6-{2,8-dimethylimidazo[1,2-b]pyridazin-6-yl}-8-methoxy-2-(piperidin-4-yl)isoquinolin-1-one] | 100 to 1000 |
| < 100 | < 100 | < 100 | Cc1cn2nc(-c3cc(F)c4c(=O)n(C5CCN(C)CC5)ccc4c3)cc(C)c2n1 [Compound 400, 6-(2,8-dimethylimidazo[1,2-b]pyridazin-6-yl)-8-fluoro-2-(1-methylpiperidin-4-yl)isoquinolin-1(2H)-one] | < 100 |
| < 100 | 100 to 1000 | < 100 | CCN1CCC(n2ccc3cc(-c4cc(C)c5nc(C)cn5n4)ccc3c2=O)CC1 [Compound 402, 6-{2,8-dimethylimidazo[1,2-b]pyridazin-6-yl}-2-(1-ethylpiperidin-4-yl)isoquinolin-1-one] | < 100 |
| 1000 to 10000 | 1000 to 10000 | 100 to 1000 | Cc1cn2cc(-c3ccc4c(=O)n([C@H]5CCCNC5)ccc4c3)cc(F)c2n1 [Compound 404, 6-{8-fluoro-2-methylimidazo[1,2-a]pyridin-6-yl}-2-[(3S)-piperidin-3-yl]isoquinolin-1-one] | 1000 to 10000 |
| > 10000 | > 10000 | > 10000 | Cc1cn2cc(-c3cc(S(C)(=O)=O)c4c(=O)n(C5CCNCC5)ccc4c3)cc(F)c2n1 [Compound 409, 6-(8-fluoro-2-methylimidazo[1,2-a]pyridin-6-yl)-8-(methylsulfonyl)-2-(piperidin-4-yl)isoquinolin-1(2H)-one] | > 10000 |
| < 100 | < 100 | < 100 | Cn1cc2cc(-c3cc(F)c4c(=O)n(C5CCNC6(CC6)C5)ccc4c3)cc(F)c2n1 (stereo not shown) [Compound 412] | < 100 |
| < 100 | < 100 | < 100 | Cc1cn2cc(-c3cc(F)c4c(=O)n(C5CCNC6(CC6)C5)ccc4c3)cc(Cl)c2n1 (stereo not shown) [Compound 413, 2-{4-azaspiro[2.5]octan-7-yl}-6-{8-chloro-2-methylimidazo[1,2-a]pyridin-6-yl}-8-fluoroisoquinolin-1-one] | < 100 |
| 1000 to 10000 | 1000 to 10000 | 1000 to 10000 | Cn1cc2cc(-c3cc(F)c4c(=O)n(C5CCNC6(CC6)C5)ccc4c3)c(O)cc2n1 (stereo not shown) [Compound 414, 2-{4-azaspiro[2.5]octan-7-yl}-8-fluoro-6-(6-hydroxy-2-methylindazol-5-yl)isoquinolin-1-one] | 1000 to 10000 |
| < 100 | < 100 | < 100 | Cc1cc(-c2cc(F)c3c(=O)n(C4CCNC5(CC5)C4)ccc3c2)cc2cn(C)nc12 (stereo not shown) [Compound 415, 2-{4-azaspiro[2.5]octan-7-yl}-6-(2,7-dimethylindazol-5-yl)-8-fluoroisoquinolin-1-one] | < 100 |
| < 100 | < 100 | < 100 | Cc1cn2cc(-c3cc(F)c4c(=O)n(C5CCNC6(CC6)C5)ccc4c3)cc(C)c2n1 (stereo not shown) [Compound 416, 2-{4-azaspiro[2.5]octan-7-yl}-6-{2,8-dimethylimidazo[1,2-a]pyridin-6-yl}-8-fluoroisoquinolin-1-one] | < 100 |
| < 100 | < 100 | < 100 | Cc1nc2c(F)cc(-c3cc(F)c4c(=O)n(C5CCNC6(CC6)C5)ccc4c3)cc2o1 (stereo not shown) [Compound 417, 2-{4-azaspiro[2.5]octan-7-yl}-8-fluoro-6-(4-fluoro-2-methyl-1,3-benzoxazol-6-yl)isoquinolin-1-one] | < 100 |
| < 100 | < 100 | < 100 | Cc1nc2c(C)cc(-c3cc(F)c4c(=O)n(C5CCNC6(CC6)C5)ccc4c3)cc2o1 (stereo not shown) [Compound 418, 2-{4-azaspiro[2.5]octan-7-yl}-6-(2,4-dimethyl-1,3-benzoxazol-6-yl)-8-fluoroisoquinolin-1-one] | < 100 |
| 1000 to 10000 | 1000 to 10000 | 1000 to 10000 | Cc1c(O)c(-c2cc(F)c3c(=O)n(C4CCNC5(CC5)C4)ccc3c2)cc2cn(C)nc12 (stereo not shown) [Compound 419, 2-{4-azaspiro[2.5]octan-7-yl}-8-fluoro-6-(6-hydroxy-2,7-dimethylindazol-5-yl)isoquinolin-1-one] | 1000 to 10000 |
| 100 to 1000 | 100 to 1000 | 100 to 1000 | Cn1cc2cc(-c3cc(F)c4c(=O)n(C5CCNC6(CC6)C5)ccc4c3)c(O)c(F)c2n1 (stereo not shown) [Compound 420, 2-{4-azaspiro[2.5]octan-7-yl}-8-fluoro-6-(7-fluoro-6-hydroxy-2-methylindazol-5-yl)isoquinolin-1-one] | 100 to 1000 |
| > 10000 | > 10000 | > 10000 | Cc1cn2cc(-c3cc(F)c4c(=O)n(C5CCNC6(CC6)C5)ccc4c3)c(O)c(C)c2n1 (stereo not shown) [Compound 421, 2-{4-azaspiro[2.5]octan-7-yl}-8-fluoro-6-{7-hydroxy-2,8-dimethylimidazo[1,2-a]pyridin-6-yl}isoquinolin-1-one] | > 10000 |
| < 100 | < 100 | < 100 | Cc1cn2nc(-c3cc(C)c4c(=O)n(C5CCNC6(CC6)C5)ncc4c3)cc(C)c2n1 (stereo not shown) [Compound 423, 6-(2,8-dimethylimidazo[1,2-b]pyridazin-6-yl)-8-methyl-2-(4-azaspiro[2.5]octan-7-yl)phthalazin-1(2H)-one] | < 100 |
| 100 to 1000 | 100 to 1000 | 100 to 1000 | Cc1cn2cc(-c3cc(F)c4c(=O)n(C5CCNC6(CC6)C5)ccc4c3)ncc2n1 (stereo not shown) [Compound 428, 8-fluoro-6-(2-methylimidazo[1,2-a]pyrazin-6-yl)-2-(4-azaspiro[2.5]octan-7-yl)isoquinolin-1(2H)-one] | 100 to 1000 |
| > 10000 | > 10000 | 1000 to 10000 | Cc1cc(-c2cc(F)c3c(=O)n(C4CCNC5(CC5)C4)ccc3c2)cc2c1nc(C)n2C (stereo not shown) [Compound 429] | > 10000 |
| > 10000 | > 10000 | 1000 to 10000 | Cc1nc2c(F)cc(-c3cc(F)c4c(=O)n(C5CCNC6(CC6)C5)ccc4c3)cc2n1C (stereo not shown) [Compound 430, 8-fluoro-6-(4-fluoro-1,2-dimethyl-1H-benzo[d]imidazol-6-yl)-2-(4-azaspiro[2.5]octan-7-yl)isoquinolin-1(2H)-one] | > 10000 |
| < 100 | < 100 | < 100 | Cc1cc(-c2cc(F)c3c(=O)n(C4CCNC5(CC5)C4)ccc3c2)nc2cn(C)nc12 (stereo not shown) [Compound 431] | < 100 |
